From PubChem BioAssay (NCI) come the findings set out here.

The structures appear in SMILES notation. “And” between values parts separate entries of the source, which are not always exact repeats. Equal values may be shown once.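 Protocol summary: plate cells (96-well), add compound at 5 concentrations, incubate 48 h, interpolate endpoints linearly. GI50 = concentration required for 50% inhibition of growth. At the TGI there is no net growth.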 Where only a bound is given, the exact number is not on record here.

Common to all, as to assay: inhibition of tumour cell growth, NCI panel, 48 h
Test [1] deals with HL-60(TB) leukemia.
The subject of test [2] is HOP-62 NSCLC.
The test system of test [3] is HT29 colon.
Test [4] deals with K-562 leukemia.
Test [5] has as its system MDA-MB-231 breast.
Test [6] concerns NCI-H23 lung.
Test [7] concerns OVCAR-4 ovarian.
For test [8], the system named is OVCAR-8 ovarian.
In test [9] the test system is MALME-3M melanoma.
Test [10] deals with UACC-62 melanoma.

As for `Cc1ccc2c(Nc3cccc(Cl)c3F)ncc(NC(=O)c3csc4c(N)ncnc34)c2c1`, the GI50 in test [1] was 65.6 nM; in test [2], 359 nM; in [3] it was 77.9 nM; in test [4] it was 1500 nM; in test [5], 0.164 µM; in test [6] it was 522 nM. For the same compound, the figures for the GI50 in [7] and in [8] were greater than 100 µM and greater than 76.8 µM, respectively. Further, the TGI was greater than 100 µM in test [1]; greater than 100 µM in [2]; greater than 100 µM in test [3]; greater than 100 µM in test [4]; greater than 94 µM in test [5]; greater than 100 µM in test [6]. Further, the TGI in test [7] and in test [8] was greater than 100 µM in each case.

Consider `CCOC(=O)c1ccc(Nc2sc(C(=O)c3cccc([N+](=O)[O-])c3)c(N)c2C#N)cc1`, for which the GI50 was 108 nM in test [2]; 39.8 nM in test [3]; 37.5 nM in test [4]; 0.0754 µM in [9]; 1.1 µM in test [5]; 425 nM in test [6]. For the same compound, the GI50 in test [7] was 0.612 µM; in test [8], 1.4 µM; in test [10], 78.9 nM. Besides, the TGI in [2] came out at 6.39 µM; in test [3], 3.12 µM; in [4], 6.53 µM; in test [9], 23 µM; in test [5], 9.63 µM; in test [6], 22.6 µM. The TGI was 57.1 µM in test [7], 10.4 µM in [8] and 23.4 µM in [10].

`COc1cc2ccnc3c2c(c1OC)-c1ccc(=O)ccc1-3`: the GI50 is 32500 nM in test [2]; 14800 nM in [3]; 14500 nM in [4]; 37.9 µM in [9]; 26.9 µM in test [5]; 21.7 µM in [7]. The GI50 in test [8] is 13.4 µM; in [10] it was 14600 nM. Besides, the TGI in [2] is greater than 100 µM; in test [3] it was 68.9 µM; in test [4] it was 35.5 µM; in test [9] it was 75.5 µM; in test [5] it was greater than 100 µM; in test [7], 74.7 µM. Besides, the TGI turned out to be 58.8 µM in [8] and 34 µM in [10].

For the compound `COc1cc2c(c(OC)c1OC)-c1ccc(SC)c(=O)cc1[C@@H](NCc1cccc(C#N)c1)CC2`, the GI50 is less than 7.5 nM in test [1]; less than 7.5 nM in test [2]; less than 7.5 nM in [3]; less than 7.5 nM in [4]; less than 0.0075 µM in test [9]; less than 0.0075 µM in test [8]. Also, the TGI in test [2] is greater than 75 µM; in [3], 0.0348 µM and < 0.0075 µM; in [4] it was 18.2 µM; in test [9], greater than 75 µM; in [6], less than 0.0075 µM; in test [7] it was greater than 75 µM. In test [10], the TGI amounted to 0.0637 µM.

In the case of `Cc1ccc(C2(O)CC(c3ccc([N+](=O)[O-])o3)=NN2C(=O)COc2ccccc2Cl)cc1` (stereo not given), the TGI in test [1] was 12.9 µM; in test [2], 83.5 µM; in [3], greater than 42 µM; in [4], greater than 100 µM; in test [9], 40.3 µM; in [6], 33.6 µM. Moreover, the TGI was greater than 100 µM in test [7], greater than 100 µM in test [8] and 24.5 µM in test [10].

On to `O=C1c2cc3c(cc2[C@@H]2[C@H]1c1ccc([N+](=O)[O-])cc1C(=O)N2CCCCl)OCO3`, for which the GI50 is less than 10 nM in [2]; less than 10 nM in [3]; 857 nM in [4]; less than 0.0416 µM in test [5]; less than 10 nM in test [6]; 0.151 µM in test [7]. The GI50 was less than 0.01 µM in test [8] and less than 10 nM in test [10]. The TGI is greater than 100 µM in test [3]; greater than 100 µM in [4]; 2.38 µM in [5]; 0.0398 µM in test [6]; greater than 100 µM in test [7]; greater than 100 µM in test [8]. The compound further returned a TGI in [10] of less than 0.0171 µM.

For `C/C1=C\C/C=C(\C)[C@H]2CC(CC/C(C)=C/CC1)[C@@](C)(CO)O2`, the GI50 was 16800 nM in test [1]; 47600 nM in test [2]; greater than 100000 nM in test [3]; 28400 nM in test [4]; 54.9 µM in test [5]; greater than 100000 nM in test [6]. For the same compound, the GI50 was greater than 100 µM in test [7], greater than 100 µM in test [8] and 69200 nM in [10]. Besides, the TGI in [1] is 51.1 µM; in test [2], greater than 100 µM; in test [3], greater than 100 µM; in test [4] it was greater than 100 µM; in test [5], greater than 100 µM; in test [6], greater than 100 µM. Moreover, the TGI in test [7], in test [8] and in test [10] was greater than 100 µM in each case.

As to `CN(C)CC/C(=N\Nc1ccc(Cl)c(Cl)c1)c1ccccc1`, the TGI turned out to be 5.8 µM in [1]; 6.09 µM in test [2]; 4.05 µM in test [3]; 4.68 µM in test [4]; 13.3 µM in test [9]; 3.67 µM in test [6]. The TGI in [7] worked out at 5.01 µM; in test [8] it was 3.96 µM; in test [10] it was 3.88 µM.

Consider `CC[C@H](C)[C@H](NC(=O)Nc1ccccc1)C(=O)N(C)[C@H](C[C@@H](OC(C)=O)c1nc(C(=O)N[C@@H](Cc2ccccc2)C[C@H](C)C(=O)OC)cs1)C(C)C`, for which the GI50 in test [2] is 3660 nM; in test [3], 3330 nM; in [9] it was 98.2 µM; in test [5], 3.36 µM; in test [6], 5800 nM; in test [7] it was 6.06 µM. Besides, the GI50 in [8] is 4.69 µM; in [10], 1270 nM. For the same compound, the TGI in [2] is greater than 100 µM; in test [3], greater than 100 µM; in test [9], greater than 100 µM; in test [5], 22.1 µM; in test [6], greater than 100 µM; in [7], greater than 100 µM. Moreover, the TGI in test [8] and in test [10] was greater than 100 µM each time.
